# Where two headings read alike, the source gives them in different places.
# Key:
# HDAC6 [1] = conditions: cited from earlier work
# HDAC6 [2] = conditions: cited from earlier work; remark: listed apart in the source
# [3] = target: T1, HDAC6 human recombinant enzyme (Homo sapiens, UniProt Q9UBN7); test: Fluorogenic HDAC6 inhibition assay (BPS Bioscience kit); type: biochemical; conditions: mean ± SD, three independent experiments
# T1 sequence (Q9UBN7 1-1215): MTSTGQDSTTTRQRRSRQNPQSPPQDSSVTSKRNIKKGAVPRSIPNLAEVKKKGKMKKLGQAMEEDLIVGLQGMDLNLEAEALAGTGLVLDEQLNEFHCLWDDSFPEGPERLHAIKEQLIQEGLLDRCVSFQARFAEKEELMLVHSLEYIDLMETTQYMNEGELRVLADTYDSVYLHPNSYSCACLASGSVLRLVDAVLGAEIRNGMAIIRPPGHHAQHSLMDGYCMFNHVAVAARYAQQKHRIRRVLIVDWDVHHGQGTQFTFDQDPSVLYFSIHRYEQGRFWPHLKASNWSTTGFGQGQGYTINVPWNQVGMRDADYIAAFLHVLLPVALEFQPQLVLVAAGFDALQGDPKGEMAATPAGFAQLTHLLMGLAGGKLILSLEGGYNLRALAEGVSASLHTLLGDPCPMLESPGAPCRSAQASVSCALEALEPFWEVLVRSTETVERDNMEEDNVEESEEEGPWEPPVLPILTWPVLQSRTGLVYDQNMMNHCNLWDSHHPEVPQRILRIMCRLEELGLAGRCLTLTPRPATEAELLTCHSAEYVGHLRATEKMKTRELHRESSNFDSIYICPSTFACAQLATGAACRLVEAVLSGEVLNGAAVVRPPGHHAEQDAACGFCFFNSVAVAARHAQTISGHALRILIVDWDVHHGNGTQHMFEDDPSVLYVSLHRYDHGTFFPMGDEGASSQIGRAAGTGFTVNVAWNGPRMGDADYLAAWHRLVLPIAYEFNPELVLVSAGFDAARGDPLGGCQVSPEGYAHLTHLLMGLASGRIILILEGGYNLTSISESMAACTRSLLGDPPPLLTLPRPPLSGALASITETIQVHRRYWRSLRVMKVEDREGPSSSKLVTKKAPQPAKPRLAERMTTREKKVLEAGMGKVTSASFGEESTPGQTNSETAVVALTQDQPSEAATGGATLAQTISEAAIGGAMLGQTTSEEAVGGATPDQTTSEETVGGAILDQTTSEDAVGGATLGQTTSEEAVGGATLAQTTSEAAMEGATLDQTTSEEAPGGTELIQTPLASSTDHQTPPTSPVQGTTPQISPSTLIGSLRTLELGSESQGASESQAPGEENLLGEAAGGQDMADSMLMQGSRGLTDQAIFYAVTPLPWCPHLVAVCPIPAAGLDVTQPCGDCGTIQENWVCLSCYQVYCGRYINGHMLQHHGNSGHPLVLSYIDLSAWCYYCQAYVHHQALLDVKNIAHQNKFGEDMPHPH
# AMO cells = test: CellTiter-Glo cell viability, AMO; type: cell-based; conditions: Homo sapiens, 72 h, mean ± SD
# Method: (§1) The MM cell lines used in this study were: AMO, AMO-BZB, NCI-H929 and NCI-H929-BZB. AMO and AMO-BZB cells were provided by Dr. C. Driessen (University of Tubingen, Tübingen, Germany). The NCI-H929 cell line was purchased from DSMZ (Braunschweig, Germany). Bortezomib (BZB)-resistant NCI-H929 cells were selected by incubation with increasing concentrations of the drug. Human MM cell lines were cultured in RPMI-1640 medium (Corning, Turin, Italy) supplemented with 10% of heat-inactivated fetal bovine serum (FBS) (Gibco®, Life Technologies, Carlsbad, CA, USA), 100 U/mL of Penicillin and 100 µg/mL of Streptomycin (P/S) (Gibco®, Life Technologies, Carlsbad, CA, USA) and incubated at 37 °C in a 5% CO2 atmosphere. Peripheral blood mononuclear cells (PBMCs) were isolated by Ficoll-hypaque (Lonza Group, Basel, Switzerland) from healthy donors, following informed consent and Institutional Review Board (University of Catanzaro, Catanzaro, Italy) approval (institutional approval: n.266/2021). […]
# (§2) Cell viability was assessed using the CellTiter-Glo (CTG) assay kit (Promega, Madison, WI, USA), as reported. […] Luminescence was measured using the GloMax-Multi Detection System (Promega, Madison, WI, USA).
# AMO-BZB cells = test: CellTiter-Glo cell viability, AMO-BZB; type: cell-based; conditions: Homo sapiens; AMO-BZB (bortezomib-resistant), 72 h, mean ± SD
# Method: as §1, §2
# H929 cells = test: CellTiter-Glo cell viability, H929; type: cell-based; conditions: Homo sapiens, NCI-H929; H929, 72 h, mean ± SD
# Method: as §1, §2
# H929-BZB cells = test: CellTiter-Glo cell viability, H929-BZB; type: cell-based; conditions: Homo sapiens; H929-BZB (bortezomib-resistant), 72 h, mean ± SD
# Method: as §1, §2
# 293T cells = test: CellTiter-Glo cell viability, 293T; type: cell-based; conditions: 72 h
# [4] = tested on: healthy peripheral blood mononuclear cells (PBMCs); test: CellTiter-Glo cell viability, healthy PBMCs; type: cell-based; conditions: 72 h
# Method: as §1, §2
# acetylated α-tubulin = test: Western blot of acetylated α-tubulin in MM cell lines; type: cell-based, human; conditions: AMO and AMO-BZB
# Method: (§3) Total protein extracts were prepared using NP-40 Cell Lysis Buffer supplemented with Halt™ Protease Inhibitor Cocktail (Thermo Fisher Scientific, Waltham, MA, USA), as reported.
# (§4) Protein samples (30 µg per lane) were resolved on 10% SDS-PAGE gels and subsequently transferred onto nitrocellulose membranes using the Trans-Blot Turbo Transfer System (Bio-Rad Laboratories, Hercules, CA, USA). Membranes were then blocked and incubated with the following primary antibodies: acetylated-α Tubulin (#sc-23950; Santa Cruz Biotechnology, Dallas, TX, USA), acetylated-histone H4 (#sc-34263; Santa Cruz Biotechnology) or histone H4 (#AB5823; abcam). GAPDH (MA5-15738; Thermo Fisher Scientific, Waltham, MA, USA) was used as loading control. Protein bands were visualized using the Clarity Western ECL Substrate (Bio-Rad Laboratories, Hercules, CA, USA), and chemiluminescence signals were quantified using the UVITEC Imaging System (Cleaver Scientific, Warwickshire, UK).
# histone H4 acetylation = test: Western blot of acetylated histone H4 in AMO cells; type: cell-based, human; conditions: 72 h
# Method: as §3, §4
# [5] = Table S1, ref DOI 10.1039/D2RA01753A
molecule,measurement,setting,value
Nc1n[nH]c(-c2cc(Cc3ccc(C(=O)NO)cc3)ccc2NC(=O)Cc2ccc3c(c2)OCO3)n1,IC50,HDAC6 [1]; [5],0.1 nM
O=C(CCCCCCC[C@H]1C(=O)[C@H]2CCC(=O)N2Cc2ccccc21)NO,IC50,HDAC6 [1],21.4 nM
CN(C)c1ccc(C(=O)N2CCC(n3cc(C(=O)NCCCCCC(=O)NO)nn3)CC2)cc1,IC50,HDAC6 [1],11.5 nM
O=C(CCCCCNC(=O)c1cn(C2CCN(S(=O)(=O)c3ccc4ccccc4c3)CC2)nn1)NO,IC50,HDAC6 [1],8.6 nM
O=C(CCCCCNC(=O)c1cn(Cc2ccc(NS(=O)(=O)c3ccc(Br)cc3)cc2)nn1)NO,IC50,HDAC6 [1],8.4 nM
COc1ccc(-c2ncc(C(=O)NCCCCCC(=O)NO)s2)c(OC)c1,IC50,HDAC6 [1],31 nM
COc1ccc(C(=O)NC2CCN(C(=O)Nc3ccc(/C=C/C(=O)NO)cc3)CC2)cc1,IC50,HDAC6 [1],12.3 nM
C=CCC.CC[C@@H]1NC(=O)CN(Cc2ccc(C(=O)NO)cc2)C1=O,IC50,HDAC6 [1],0.73 nM
O=C(NO)c1ccc(CN2CC(=O)N(Cc3ccccc3)[C@H](Cc3ccccc3)C2=O)cc1,IC50,HDAC6 [1],9.83 nM
O=C(NO)c1ccc(CN2C(=O)[C@@H](Cc3ccccc3)N(Cc3cccnc3)C2=O)cc1,IC50,HDAC6 [1],2.1 nM
O=C(NO)c1ccc(CN2c3ccccc3Sc3cccnc32)cc1,IC50,"HDAC6 [1]; Table S1, ref PMID 30645113",5 nM
NCc1ccc(NC(=O)N(CCCCO)Cc2ccc(C(=O)NO)cc2)cc1,IC50,"HDAC6 [1]; Table S1, ref PMID 32815366",0.4 nM
O=C(NO)c1ccc(CN(Cc2nnnn2Cc2ccccc2)C(=O)c2ccccc2C(F)(F)F)cc1,IC50,"HDAC6 [1]; Table S1, ref PMID 32803970",30 nM
CCCON(Cc1ccc(C(=O)NO)cc1)C(=O)Nc1cc(C)cc(C)c1,IC50,HDAC6 [1],14 nM
O=C(NO)c1ccc(CN(Cc2cccnc2)S(=O)(=O)c2cc(F)c(F)c(F)c2F)cc1,IC50,"HDAC6 [1]; Table S1, ref PMID 33576627",2.1 nM
O=C(NO)c1ccc(COC(=O)N2CCC3(CC2)CN(Cc2ccccc2)c2ccccc23)cc1,IC50,HDAC6 [1],48.5 nM
CCN(CC)Cc1ccc(Cn2c(=O)c(OCc3ccc(C(=O)NO)cc3)c(-c3ccccc3)c3ccccc32)cc1,IC50,"HDAC6 [1]; Table S1, ref PMID 33199154",6.9 nM
Nc1nc2c3ccc(Cc4ccc(C(=O)NO)cc4)cc3nc(Cc3ccc4c(c3)OCO4)n2n1,IC50,HDAC6 [1]; [5],0.5 nM
O=C(NO)c1ccc(Cn2c(=O)n(CCc3ccccc3)c(=O)c3ccccc32)cc1,IC50,HDAC6 [1],4 nM
O=C(NO)c1ccc(N2C(=O)/C(=C3\Nc4ccccc4\C3=N/O)c3ccccc32)cc1,IC50,"HDAC6 [1]; Table S1, ref PMID 32916298",7 nM
O=C(Cc1cccc2ccccc12)C[C@@H](Cc1ccccc1)C(=O)NO,IC50,HDAC6 [1],88 nM
O=C(CCCCCCNC(=O)c1cnc(N(c2ccccc2)c2ccccc2Cl)nc1)NO [ACY-241],selectivity ratio,HDAC6 [2],~10
CC(C)Oc1ccc(-c2csc(NC(=O)c3ncn[nH]3)n2)cc1 [Compound 9],IC50,[3],> 25000 nM
"O=C(CCC=C1CCN(C(=O)OCc2ccccc2)CC1)NO [Compound 10, benzyl 4-[4-(hydroxyamino)-4-oxobutylidene]piperidine-1-carboxylate]",IC50,[3],1690 ± 420 nM
same,IC50,AMO cells,13200 nM
same,IC50,AMO-BZB cells,48600 nM
same,IC50,H929 cells,18000 nM
same,IC50,H929-BZB cells,30400 nM
same,effect on viability of non-transformed cells,293T cells,negligible effects
same,effect on viability of healthy PBMCs,[4],negligible effects
same,acetylated α-tubulin levels,acetylated α-tubulin; 72 h after treatment,marked increase
same,impact on histone H4 acetylation,histone H4 acetylation,moderate
COC(=O)c1ccc2ccccc2c1OCCCCCCCC(=O)NO [ONC(=O)CCCCCCCOc1c(C(=O)OC)ccc(c12)cccc2],IC50,"HDAC6 [1]; Table S1, ref PMID 31223439",95 nM
O=C(NO)c1ccc(CNc2ncnc3[nH]ccc23)cc1 [ONC(=O)c1ccc(cc1)CNc2ncnc(c23)[nH]cc3],IC50,HDAC6 [1],10 nM
ACY-1215,acetylated α-tubulin levels,acetylated α-tubulin; 48 h after treatment,marked increase

# From article PMC12472302, “Discovery of a Promising Hydroxyamino-Piperidine HDAC6 Inhibitor via Integrated Virtual Screening and Experimental Validation in Multiple Myeloma” (Pharmaceuticals, 2025)
